Measured values: paper PMC10349806 (Nature Communications, 2023)
Values joined by “and” are separate entries in the source; they are usually repeats but may differ in a detail not shown here. Equal values may be shown once.

Biological target: PfCRT^Dd2 (Plasmodium falciparum, UniProt Q9N623, A220S/I356T/K76T/M74I/N326S/N75E/Q271E/R371I)
Assay: Drug uptake assay, X. laevis oocytes expressing PfCRT^Dd2
Format: cell-based
Conditions: for v-1 pH 4.5 / v-1 pH 5.0 / v-1 pH 5.5 / v-1 pH 6.0: Lineweaver-Burk
Experimental: Oocytes were obtained as described previously. Briefly, adult (>2 years old) female X. laevis frogs (NASCO) were anesthetized in a cooled solution of ethyl 3-amino benzoate methanesulfonate (0.1%, w/v), followed by a surgical removal of parts of the ovary. The ovary lobes were carefully dissected and small pieces of oocytes were incubated in Ca^2+-free ND96 buffer (96 mM NaCl, 2 mM KCl, 1 mM MgCl2 buffered with 5 mM HEPES/NaOH, pH 7.5) supplemented with collagenase D (0.1%, w/v; Roche), BSA (0.5%, w/v), and 9 mm Na2HPO4 at 18 °C for 14-16 h while gentle shaking. After incubation, the oocytes were carefully washed several times with ND96 buffer (96 mM NaCl, 2 mM KCl, 1.8 mM CaCl2, 1 mM MgCl2 buffered with 5 mM HEPES/NaOH, pH 7.5) supplemented with 100 mg l^−1 gentamycin). Defolliculated and healthy-looking stage V-VI oocytes were manually selected for RNA microinjection. The RNA was generated as following: The codon-optimized sequences of PfCRT variants were cloned into the pSP64T expression vector. After vector linearization using the restriction endonucleases BamHI or SalI (New England Biolabs), transcription was performed using the in vitro SP6 mMessage mMachine Kit (Ambion)[34]. The obtained RNA was kept at −80 °C and diluted with nuclease-free water to a concentration of 0.6 μg μl^−1. Precision-bore glass capillary tubes (3.5-inch glass capillaries; Drummond Scientific Co.) were pulled on a vertical puller (P-87 Flaming/Brown micropipette puller, Sutter Instrument Co.), graduated, and placed on a microinjector (Nanoject II Auto-Nanoliter Injector, Drummond Scientific Co.). 50 nl of nuclease-free water alone (control oocytes) or 50 nl of 0.6 μg μl^−1 RNA were injected under stereomicroscopic control. Injected oocytes were incubated for 46–72 h at 18 °C with twice-daily buffer changes before usage in experiments.
Drug uptake assays were performed as described previously[21],[22],[24],[34]. […] The direction of radio-labeled drug transport is here from the mostly acidic extracellular solution (pH 4.5 or 6.0, as indicated) into the oocyte cytosol (pH ∼ 7.2), which corresponds to the efflux of drug from the acidic digestive vacuole (pH 5.2) into the parasite cytoplasm (pH 7.2). The topology of PfCRT in the oolemma is such that both the N- and C-terminus face the extracellular milieu[3],[22]. In the parasite, the N- and C-terminus face the lumen of the digestive vacuole. […] For determination of the amount of drug uptake for each oocyte, the reaction medium was removed and the oocytes were washed three times with 2 ml of ice-cold ND96 buffer. Each oocyte was individually transferred to a scintillation vial containing 5% sodium dodecyl sulfate (200 μl) for lysis. […] Oocytes that were injected with water instead of RNA were analyzed in parallel, representing the uptake of a drug by diffusion and/or endogenous permeation pathways. The resulting value represents the “background“ level of drug accumulation in oocytes (in-depth discussion in[22]). The specific PfCRT-mediated uptake was determined by subtracting the corresponding background value measured in water-injected oocytes from that of PfCRT-expressing oocytes. In all cases, at least three separate experiments were performed on oocytes from different frogs (biological replicate), and for each condition in an experiment, measurements were made from 10 oocytes per treatment. For pH 5.5, 6.0, and 6.5, ND96 was buffered with 5 mM MES/Tris base. For pH 4.5, 5 mM Homo-Pipes was used as a buffer and 5 mM HEPES for uptake at pH 7.0.

PfCRT^Dd2, sequence (Q9N623 whole entry A220S/I356T/K76T/M74I/N326S/N75E/Q271E/R371I): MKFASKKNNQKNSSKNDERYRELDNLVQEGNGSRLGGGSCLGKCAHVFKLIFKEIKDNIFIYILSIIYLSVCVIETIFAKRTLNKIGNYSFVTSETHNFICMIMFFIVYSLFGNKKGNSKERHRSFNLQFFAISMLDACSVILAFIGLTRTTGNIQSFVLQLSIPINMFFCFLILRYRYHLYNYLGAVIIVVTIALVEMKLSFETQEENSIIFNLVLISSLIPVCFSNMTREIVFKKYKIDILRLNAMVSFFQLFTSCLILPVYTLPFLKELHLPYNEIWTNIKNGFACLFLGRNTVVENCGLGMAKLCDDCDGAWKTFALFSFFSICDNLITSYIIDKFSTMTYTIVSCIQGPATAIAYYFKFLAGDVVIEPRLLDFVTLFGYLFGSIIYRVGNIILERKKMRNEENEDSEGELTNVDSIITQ

CCN(CC)CCCC(C)Nc1ccnc2cc(Cl)ccc12 (centres unmarked) [CQ, chloroquine]
PfCRTDd2-mediated CQ transport activity (300 µM CQ, time 90 min): 21.08 pmol oocyte-1 | v-1 pH 4.5 (300 µM CQ): 0.11 (pmol oocyte-1 h-1)-1 | v-1 pH 5.0 (300 µM CQ): 0.09 (pmol oocyte-1 h-1)-1 | v-1 pH 5.5 (300 µM CQ): 0.08 (pmol oocyte-1 h-1)-1 | v-1 pH 6.0 (300 µM CQ): 0.0649 (pmol oocyte-1 h-1)-1 | PfCRTDd2 transport activity (400 µM CQ, pH 4.5, 60 min): 9.19 pmol oocyte-1 h-1 and 9.21 pmol oocyte-1 h-1 and 9.15 pmol oocyte-1 h-1 and 10.13 pmol oocyte-1 h-1 and 7.52 pmol oocyte-1 h-1 and 9.96 pmol oocyte-1 h-1 | PfCRTDd2 transport activity (400 µM CQ, pH 5.0, 60 min): 11.32 pmol oocyte-1 h-1 | PfCRTDd2 transport activity 400 µM CQ pH 5.0 (400 µM CQ, pH 5.0, individual replicates (Fig 4a)): 11.40 pmol oocyte-1 h-1 and 11.89 pmol oocyte-1 h-1 and 10.67 pmol oocyte-1 h-1 | PfCRTDd2 transport activity (400 µM CQ, pH 5.5, 60 min): 13.77 pmol oocyte-1 h-1 | PfCRTDd2 transport activity 400 µM CQ pH 5.5 (400 µM CQ, pH 5.5, individual replicates (Fig 4a)): 14.89 pmol oocyte-1 h-1 and 13.71 pmol oocyte-1 h-1 and 13.31 pmol oocyte-1 h-1 | PfCRTDd2 transport activity (400 µM CQ, pH 6.0, 60 min): 19.62 pmol oocyte-1 h-1 and 19.38 pmol oocyte-1 h-1 and 19.10 pmol oocyte-1 h-1 and 20.37 pmol oocyte-1 h-1 | PfCRTDd2 transport activity 400 µM CQ pH 6.0 (400 µM CQ, pH 6.0, individual replicates (Fig 4a)): 19.38 pmol oocyte-1 h-1 and 19.10 pmol oocyte-1 h-1 and 20.37 pmol oocyte-1 h-1 | PfCRTDd2-mediated CQ transport activity (400 µM CQ, time 0 min): 0.00 pmol oocyte-1 | PfCRTDd2-mediated CQ transport activity (400 µM CQ, time 30 min): 11.37 pmol oocyte-1 | PfCRTDd2-mediated CQ transport activity (400 µM CQ, time 60 min): 18.93 pmol oocyte-1 | PfCRTDd2-mediated CQ transport activity (400 µM CQ, time 90 min): 23.37 pmol oocyte-1 | v-1 pH 4.5 (400 µM CQ): 0.11 (pmol oocyte-1 h-1)-1 | v-1 pH 5.0 (400 µM CQ): 0.09 (pmol oocyte-1 h-1)-1 | v-1 pH 5.5 (400 µM CQ): 0.07 (pmol oocyte-1 h-1)-1 | v-1 pH 6.0 (400 µM CQ): 0.05 (pmol oocyte-1 h-1)-1 | PfCRTDd2 transport activity (500 µM CQ, pH 4.5, 60 min): 9.38 pmol oocyte-1 h-1 and 9.85 pmol oocyte-1 h-1 and 9.73 pmol oocyte-1 h-1 and 10.40 pmol oocyte-1 h-1 and 7.53 pmol oocyte-1 h-1 | PfCRTDd2 transport activity 500 µM CQ pH 4.5 (500 µM CQ, pH 4.5, individual replicates (Fig 4a)): 9.85 pmol oocyte-1 h-1 and 9.73 pmol oocyte-1 h-1 and 10.40 pmol oocyte-1 h-1 and 7.53 pmol oocyte-1 h-1 | PfCRTDd2 transport activity (500 µM CQ, pH 5.0, 60 min): 11.35 pmol oocyte-1 h-1 | PfCRTDd2 transport activity 500 µM CQ pH 5.0 (500 µM CQ, pH 5.0, individual replicates (Fig 4a)): 12.28 pmol oocyte-1 h-1 | PfCRTDd2 transport activity (500 µM CQ, pH 5.5, 60 min): 14.75 pmol oocyte-1 h-1 | PfCRTDd2 transport activity 500 µM CQ pH 5.5 (500 µM CQ, pH 5.5, individual replicates (Fig 4a)): 14.32 pmol oocyte-1 h-1 and 15.56 pmol oocyte-1 h-1 and 14.38 pmol oocyte-1 h-1 and 14.75 pmol oocyte-1 h-1 | PfCRTDd2 transport activity (500 µM CQ, pH 6.0, 60 min): 20.73 pmol oocyte-1 h-1 and 20.81 pmol oocyte-1 h-1 and 20.59 pmol oocyte-1 h-1 and 20.78 pmol oocyte-1 h-1 | PfCRTDd2 transport activity 500 µM CQ pH 6.0 (500 µM CQ, pH 6.0, individual replicates (Fig 4a)): 20.81 pmol oocyte-1 h-1 and 20.59 pmol oocyte-1 h-1 and 20.78 pmol oocyte-1 h-1 | PfCRTDd2-mediated CQ transport activity (500 µM CQ, time 0 min): 0.00 pmol oocyte-1 | PfCRTDd2-mediated CQ transport activity (500 µM CQ, time 30 min): 18.55 pmol oocyte-1 | PfCRTDd2-mediated CQ transport activity (500 µM CQ, time 60 min): 25.91 pmol oocyte-1 | PfCRTDd2-mediated CQ transport activity (500 µM CQ, time 90 min): 27.18 pmol oocyte-1 | v-1 pH 4.5 (500 µM CQ): 0.11 (pmol oocyte-1 h-1)-1 | v-1 pH 5.0 (500 µM CQ): 0.09 (pmol oocyte-1 h-1)-1 | v-1 pH 5.5 (500 µM CQ): 0.07 (pmol oocyte-1 h-1)-1
